# Source: patent US6906098B2, “Mixed steroidal 1,2,4,5-tetraoxane compounds and methods of making and using thereof” (priority 2002, dated 2005)
# “And” between values parts separate entries of the source, which are not always exact repeats. Equal entries are not always repeated. Where two headings read alike, the source gives them in different places.
# Key:
# [1] = tested on: D6 and W2 P. falciparum clones; format: cell-based, Plasmodium falciparum; conditions: for Resistance Index: IC50 (W2)/IC50 (D6) ratio; for times more active than bis(1,1-dioxy-2-methylcyclohexane): antimalarial activity versus literature tetraoxane
# [2] = tested on: Plasmodium falciparum chloroquine-susceptible strain D6; assay: In vitro antimalarial drug susceptibility assay (radiolabeled hypoxanthine incorporation), strain D6; format: cell-based; conditions: for Strain D6 IC50: growth inhibition, chloroquine-susceptible strain D6, 66 h incubation; for IC50: Plasmodium falciparum, D6, 66 h, read-out: Strain D6 IC50, growth inhibition, chloroquine-susceptible strain D6, 66 h incubation
# [3] = tested on: Plasmodium falciparum chloroquine-resistant strain W2; assay: microbe, parasite or virus in culture; format: cell-based; conditions: for Strain W2 IC50: growth inhibition, chloroquine-resistant strain W2, 66 h incubation; for IC50: Plasmodium falciparum, W2, 66 h, read-out: Strain W2 IC50, growth inhibition, chloroquine-resistant strain W2, 66 h incubation
# M. tuberculosis H37Rv = assay: Minimum inhibitory concentration (MIC) in the MABA; format: cell-based, Mycobacterium tuberculosis; conditions: Mycobacterium tuberculosis, H37RV
# In short: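 Run under the NIAID TAACF screening program against M. tuberculosis by fluorescence read-out. MIC taken as the lowest concentration giving 90% reduction in fluorescence relative to controls.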
# [4] = tested on: lung NCI-H460, breast MCF7, CNS SF-268; assay: 3-cell line one dose primary anticancer assay (NCI); format: cell-based, human; conditions: growth percentage after 48 hours, at 100 μM
# Procedure: In preliminary tests, four compounds (1B14a, 1C44, 1C45, and 1C46) were chosen by NIH-NCI for in vitro screening. See Drug discovery and development program, National Cancer Institute, Bethesda, (NCI), http://dtp.nci.nih.gov. All tetraoxanes were evaluated in the 3-cell line (lung—NCI-H460, breast—MCF7, CNS-SF-268) one dose primary anticancer assay: growth percentage after 48 hours, at 100 μM concentration of tested compound. Two compounds were eliminated at this step (1B14a and 1C46), while the acid 1C44 and primary amide 1C45 were evaluated against the full panel of 60 human tumor cell lines starting with 10^−4 M concentration of investigated compounds.
# [5] = tested on: Mycobacterium tuberculosis H37Rv (ATCC 27294); assay: Primary screen, Microplate Alamar Blue Assay (MABA), percent inhibition; format: cell-based; conditions: Mycobacterium tuberculosis, primary screening at 6.25 μg/ml
# In short: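 Single-concentration screen at 6.25 μg/ml (or molar equivalent of the heaviest congener in a series) against H37Rv grown in BACTEC 12B medium. Growth read by Microplate Alamar Blue Assay, reported as percent inhibition.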
# [6] = tested on: M. avium strains 100, 101, 108, 109, 116; assay: M. avium MIC, Microtiter; format: cell-based, Mycobacterium avium
# VERO cells [7] = assay: cells; conditions: Chlorocebus sabaeus, Table 5
# in vitro = conditions: African green monkey, Cytotoxcity (IC50), Table 3; VERO cell line, 72 hours exposure
# VERO cells [8] = conditions: for SI (selectivity index): ratio of IC50 in VERO cells to MIC (M. tuberculosis H37Rv)
# [9] = Table 5, Alamar assay, M. tuberculosis H37Rv, read-out: MIC
# [10] = Table 3, H37Rv, read-out: Inhibition (%)
# [11] = Table 5, Alamar assay, read-out: % Inhib
Structure (SMILES),melting point [°C],Resistance Index [1],Strain D6 IC50 [2] [µg/mL],Strain W2 IC50 [3] [µg/mL],"MIC (M. tuberculosis H37Rv; Table 3, H37Rv, read-out: MIC)",MIC (M. tuberculosis H37Rv; [9]) [µg/mL],"inhibition at 6.25 µg/mL [5, 10] [%]","inhibition at 6.25 µg/mL [5, 11] [%]",IC50 [2] [µg/mL],IC50 [3] [µg/mL],IC50 (VERO cells [7]) [µg/mL],IC50 (in vitro),SI (selectivity index) (VERO cells [8]),further results
CCCNC(=O)CC[C@@H](C)[C@H]1CC[C@H]2[C@@H]3[C@H](OC(C)=O)C[C@@H]4CC(OO)(OO)CC[C@]4(C)[C@H]3C[C@H](OC(C)=O)[C@]12C,120 to 129,,,,,,,,,,,,,
"COC(=O)CCC(C)[C@H]1CCC2C3C(C[C@H](OC(C)=O)[C@@]21C)[C@@]1(C)CCC2(C[C@H]1C[C@H]3OC(C)=O)OOC1(CCC(c3ccccc3)CC1)OO2 (single isomer, unassigned) [Compound 1B14a, Methyl 7α,12α-diacetoxy-5β-cholan-24-oate-3-spiro-6′-(1′,2′,4′,5′-tetraoxacyclohexane)-3′-spiro-1″-((4″R or S)- and (4″S or R)-phenyl)cyclohexane]",,0.93,0.01256,0.01172,> 6.25 µg/mL,> 6.25,37,37,,,,,,outcome of one dose primary anticancer assay [4]: eliminated
"CNC(=O)CCC(C)[C@H]1CCC2C3C(C[C@H](OC(C)=O)[C@@]21C)[C@@]1(C)CCC2(C[C@H]1C[C@H]3OC(C)=O)OOC1(CCC(c3ccccc3)CC1)OO2 (single isomer, unassigned) [Compound 1C46, N-Methyl-7α,12α-Diacetoxy-5β-cholan-24-amide-3-spiro-6′-(1′,2′,4′,5′-tetraoxacyclohexane)-3′-spiro-1″-((4″R or S)-phenyl)cyclohexane]",,0.79,0.00883,0.00696,,> 6.25,,71,,,,,,"MIC (M. tuberculosis H37Rv; Table 3): 6.25 µg/mL; outcome of one dose primary anticancer assay [4]: eliminated; inhibition at 6.25 µg/mL ([5]; Table 3, H37Rv): 71%"
"COC(=O)CCC(C)[C@H]1CCC2C3C(C[C@H](OC(C)=O)[C@@]21C)[C@@]1(C)CCC2(C[C@H]1C[C@H]3OC(C)=O)OOC1(CCCCC1C)OO2 (stereo partly drawn) [8d/1B06, Methyl 7α,12α-Diacetoxy-5β-cholan-24-oate-3-spiro-6′-(1′,2′,4′,5′-tetraoxacyclohexane)-3′-spiro-1″-(2″-methyl)cyclohexane]",204 to 207,0.58,,,,> 6.25,,29,0.0175,0.0102,,,,"times more active than bis(1,1-dioxy-2-methylcyclohexane) [1]: about 2 times"
"COC(=O)CCC(C)[C@H]1CCC2C3C(C[C@H](OC(C)=O)[C@@]21C)[C@@]1(C)CCC2(C[C@H]1C[C@H]3OC(C)=O)OOC1(OO2)C(C)CCCC1C (stereo partly drawn) [8e/1B07, Methyl 7α,12α-diacetoxy-5β-cholan-24-oate-3-spiro-6′-(1′,2′,4′,5′-tetraoxacyclohexane)-3′-spiro-1″-(2″,6″-dimethyl)cyclohexane]",213 to 215,11.45,,,,> 6.25,,0,0.0207,0.237,,,,"antimalarial activity in words ([1]; D6 and W2 clones, Table 2): inactive"
"CC(=O)O[C@H]1CC2C(C3CC[C@H](C(C)CCC(N)=O)[C@]31C)[C@H](OC(C)=O)C[C@@H]1CC3(CC[C@]21C)OOC1(CCCCC1C)OO3 (stereo partly drawn) [13/1C22, 7α,12α-Diacetoxy-5β-cholan-24-amide-3-spiro-6′-(1′,2′,4′,5′-tetraoxacyclohexane)-3′-spiro-1″-(2″-methyl)cyclohexane]",,0.64,,,,0.2,,100,0.011,0.00705,,,,"times more active than bis(1,1-dioxy-2-methylcyclohexane) [1]: ca. 3.5 times; MIC ([6]; M. avium strain 101, MIC dilution 0.25-32): >32 µg/mL; MIC ([6]; M. avium strain 108, MIC dilution 0.25-32): >32 µg/mL; MIC ([6]; M. avium strain 109, MIC dilution 0.25-32): >32 µg/mL; MIC ([6]; M. avium strain 116, MIC dilution 0.25-32): >32 µg/mL; MIC ([6]; Mycobacterium avium, M. avium strain 100, MIC dilution 0.25-32, read-out: MIC): > 32 µg/mL"
"CC(=O)O[C@H]1CC2C(C3CC[C@H](C(C)CCC(N)=O)[C@]31C)[C@H](OC(C)=O)C[C@@H]1CC3(CC[C@]21C)OOC1(CCC(C)CC1)OO3 (stereo partly drawn) [17/1C26, 7α,12α-Diacetoxy-5β-cholan-24-amide-3-spiro-6′-(1′,2′,4′,5′-tetraoxacyclohexane)-3′-spiro-1″-((4″R)-methyl)cyclohexane]",,0.50,,,3.13 µg/mL and 4.94 µM,3.13,99,99,,,3.49,3.49 µg/mL and 5.51 µM,1.1,Resistance Index ([1]; listed as 17): 0.50; times more active than parent methyl ester 8g ([1]; antimalarial activity): ca. 9 times; times as active as arteether ([1]; antimalarial activity in vitro): 2.4 times; times more active than artelinic acid ([1]; antimalarial activity in vitro): ca. 6 times; Strain D6 IC50 ([2]; listed as 17): 0.00074 µg/mL; Strain W2 IC50 ([3]; listed as 17): 0.00037 µg/mL; SI (IC50 (Vero)/IC50 (D6 or W2)) (VERO cells [8]; cytotoxicity in Vero cells versus antimalarial activity): 9 500
"CCNC(=O)CCC(C)[C@H]1CCC2C3C(C[C@H](OC(C)=O)[C@@]21C)[C@@]1(C)CCC2(C[C@H]1C[C@H]3OC(C)=O)OOC1(CCC(C)CC1)OO2 (stereo partly drawn) [19/1C28, N-Ethyl-7α,12α-diacetoxy-5β-cholan-24-amide-3-spiro-6′-(1′,2′,4′,5′-tetraoxacyclohexane)-3″-spiro-1″-((4″R)-methyl)cyclohexane]",,0.68,0.00384,0.0026,3.13 µg/mL and 4.73 µM,3.13,98,,,,5.37,5.37 µg/mL and 8.11 µM,1.7,
"CCCNC(=O)CCC(C)[C@H]1CCC2C3C(C[C@H](OC(C)=O)[C@@]21C)[C@@]1(C)CCC2(C[C@H]1C[C@H]3OC(C)=O)OOC1(CCC(C)CC1)OO2 (stereo partly drawn) [20/1C29, N-(n-Propyl)-7α,12α-diacetoxy-5β-cholan-24-amide-3-spiro-6′-(1′,2′,4′,5′-tetraoxacyclohexane)-3′-spiro-1″-((4″R)-methyl)cyclohexane]",,1.18,0.00218,0.00258,6.25 µg/mL and 9.25 µM,6.25,94,,,,8.34,8.34 µg/mL and 12.3 µM,1.3,
